Target: T1, recombinant human PAI-1 (Homo sapiens, UniProt P05121)
T1 construct: purchased Molecular Innovations, Inc
Experiment: Test Example 1: human PAI-1 inhibitory activity (tPA fluorogenic substrate, pH 7.5 Tris buffer)
Format: biochemical
Conditions: Tris buffer
Method: 50 mM Tris, 150 mM NaCl, 10 μg/ml BSA, 0.01% Tween80 (SIGMA-ALDRICH Corporation)

T1 sequence (P05121 24-402): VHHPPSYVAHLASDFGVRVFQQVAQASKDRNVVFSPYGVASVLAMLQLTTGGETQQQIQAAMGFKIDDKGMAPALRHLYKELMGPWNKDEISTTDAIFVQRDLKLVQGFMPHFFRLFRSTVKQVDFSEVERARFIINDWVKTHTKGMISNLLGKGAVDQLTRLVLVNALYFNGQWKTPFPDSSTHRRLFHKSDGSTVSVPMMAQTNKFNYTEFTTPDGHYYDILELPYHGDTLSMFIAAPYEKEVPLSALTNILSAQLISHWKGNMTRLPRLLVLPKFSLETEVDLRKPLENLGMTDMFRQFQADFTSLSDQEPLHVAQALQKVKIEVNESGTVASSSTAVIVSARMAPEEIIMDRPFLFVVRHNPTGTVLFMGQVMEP

Inhibition Rate of PAI-1 Activity (%) (Compound Concentration 5 μM)	Inhibition Rate of PAI-1 Activity (%) (Compound Concentration 10 μM)	Inhibition Rate of PAI-1 Activity (%) (Compound Concentration 25 μM)	SMILES
28%	57%	95%	CC(C)(C)c1ccc(COc2ccc(-c3ccc(C(F)(F)F)cc3)cc2/C=C/C(=O)O)cc1 [Compound 35]
23%	60%	99%	CC(C)(C)c1ccc(COc2ccc(-c3ccc(C(F)(F)F)cc3)cc2CCC(=O)O)cc1 [Compound 36]
23%	47%	84%	COc1ccc(-c2ccc(OCc3ccc(C(C)(C)C)cc3)c(/C=C/C(=O)O)c2)cc1 [Compound 37]
14%	34%	93%	COc1ccc(-c2ccc(OCc3ccc(C(C)(C)C)cc3)c(CCC(=O)O)c2)cc1 [Compound 38]
25%	56%	94%	CC(C)(C)c1ccc(COc2ccc(-c3ccc(C(C)(C)C)cc3)cc2/C=C/C(=O)O)cc1 [Compound 39]
22%	66%	>99%	CC(C)(C)c1ccc(COc2ccc(-c3ccc(C(C)(C)C)cc3)cc2CCC(=O)O)cc1 [Compound 40]
29%	66%	94%	CCCCc1ccc(-c2ccc(OCc3ccc(C(C)(C)C)cc3)c(CCC(=O)O)c2)cc1 [Compound 43]
16%	25%	21%	CSc1ccc(-c2ccc(OCc3ccc(C(C)(C)C)cc3)c(/C=C/C(=O)O)c2)cc1 [Compound 44]
22%	47%	91%	CC(C)(C)c1ccc(-c2ccc(OCc3ccccc3)c(/C=C/C(=O)O)c2)cc1 [Compound 47]
20%	50%	93%	CC(C)(C)c1ccc(-c2ccc(OCc3ccccc3)c(CCC(=O)O)c2)cc1 [Compound 48]
32%	69%	94%	CC(C)(C)c1ccc(-c2ccc(OCc3ccc(OC(F)(F)F)cc3)c(/C=C/C(=O)O)c2)cc1 [Compound 51]
28%	64%	94%	CC(C)(C)c1ccc(-c2ccc(OCc3ccc(OC(F)(F)F)cc3)c(CCC(=O)O)c2)cc1 [Compound 52]
19%	32%	74%	O=C(O)CCc1cc(-c2ccccc2)ccc1OCc1ccc(OC(F)(F)F)cc1 [Compound 53]
21%	46%	95%	COc1ccccc1-c1ccc(OCc2ccc(C(C)(C)C)cc2)c(/C=C/C(=O)O)c1 [Compound 55]
22%	47%	91%	COc1ccccc1-c1ccc(OCc2ccc(C(C)(C)C)cc2)c(CCC(=O)O)c1 [Compound 56]
24%	53%	82%	O=C(O)/C=C/c1cc(-c2ccc(OC(F)(F)F)cc2)ccc1OCc1cccc(C(F)(F)F)c1 [Compound 57]
22%	53%	97%	O=C(O)CCc1cc(-c2ccc(OC(F)(F)F)cc2)ccc1OCc1cccc(C(F)(F)F)c1 [Compound 58]
25%	53%	77%	Cc1cc(C)cc(COc2ccc(-c3ccc(OC(F)(F)F)cc3)cc2CCC(=O)O)c1 [Compound 59]
15%	35%	25%	COc1ccc(COc2ccc(-c3ccc(OC(F)(F)F)cc3)cc2CCC(=O)O)cc1 [Compound 60]
21%	48%	97%	Cc1ccc(COc2ccc(-c3ccc(OC(F)(F)F)cc3)cc2CCC(=O)O)cc1 [Compound 61]
29%	62%	99%	O=C(O)CCc1cc(-c2ccc(OC(F)(F)F)cc2)ccc1OCc1ccc(OC(F)(F)F)cc1 [Compound 62]
38%	72%	93%	CC(C)(C)c1ccc(COc2ccc(-c3cccc(OC(F)(F)F)c3)cc2/C=C/C(=O)O)cc1 [Compound 63]

Inhibition Rate of PAI-1 Activity (%) (Compound Concentration 5 μM)	Inhibition Rate of PAI-1 Activity (%) (Compound Concentration 10 μM)	Inhibition Rate of PAI-1 Activity (%) (Compound Concentration 25 μM)	SMILES
49%	74%	95%	CC(C)(C)c1ccc(COc2ccc(-c3cccc(OC(F)(F)F)c3)cc2CCC(=O)O)cc1 [Compound 64]
42%	72%	93%	CC(C)(C)c1ccc(COc2ccc(-c3ccccc3OC(F)(F)F)cc2/C=C/C(=O)O)cc1 [Compound 65]
52%	80%	>99%	CC(C)(C)c1ccc(COc2ccc(-c3ccccc3OC(F)(F)F)cc2CCC(=O)O)cc1 [Compound 66]
37%	70%	94%	CC(C)(C)c1ccc(-c2ccc(OCc3ccccc3OC(F)(F)F)c(CCC(=O)O)c2)cc1 [Compound 67]
40%	74%	95%	CC(C)(C)c1ccc(-c2ccc(OCc3cccc(OC(F)(F)F)c3)c(CCC(=O)O)c2)cc1 [Compound 68]
47%	71%	95%	CC(C)(C)c1ccc(-c2ccc(OCc3ccc(C(F)(F)F)cc3)c(CCC(=O)O)c2)cc1 [Compound 70]
51%	80%	93%	CCCCc1ccc(COc2ccc(-c3ccc(C(C)(C)C)cc3)cc2CCC(=O)O)cc1 [Compound 71]
32%	72%	98%	CC(C)c1ccc(Oc2ccc(/C=C/C(=O)O)c(Oc3ccc(C(C)C)cc3)c2)cc1 [Compound 72]
13%	53%	96%	CC(C)c1ccc(Oc2ccc(/C=C\C(=O)O)c(Oc3ccc(C(C)C)cc3)c2)cc1 [Compound 74]
25%	53%	91%	CC(C)(C)c1ccc(COc2cc(-c3ccc(OC(F)(F)F)cc3)ccc2/C=C/C(=O)O)cc1 [Compound 75]
27%	51%	73%	CC(C)(C)c1ccc(COc2cc(Oc3ccc(OC(F)(F)F)cc3)ccc2/C=C/C(=O)O)cc1 [Compound 77]
39%	84%	90%	CC(C)(C)c1ccc(Oc2cc(-c3ccc(OC(F)(F)F)cc3)ccc2/C=C/C(=O)O)cc1 [Compound 79]
28%	63%	70%	COc1cc(-c2ccc(OC(F)(F)F)cc2)cc(/C=C/C(=O)O)c1OCc1ccc(C(C)(C)C)cc1 [Compound 81]
26%	59%	98%	COc1cc(-c2ccc(OC(F)(F)F)cc2)cc(CCC(=O)O)c1OCc1ccc(C(C)(C)C)cc1 [Compound 82]
27%	46%	56%	Cc1cc(-c2ccc(OC(F)(F)F)cc2)cc(/C=C/C(=O)O)c1OCc1ccc(C(C)(C)C)cc1 [Compound 83]
28%	62%	95%	Cc1cc(-c2ccc(OC(F)(F)F)cc2)cc(CCC(=O)O)c1OCc1ccc(C(C)(C)C)cc1 [Compound 84]
40%	61%	85%	CC(C)(C)c1ccc(COc2cccc(Oc3ccc(OC(F)(F)F)cc3)c2/C=C/C(=O)O)cc1 [Compound 85]
44%	81%	96%	CC(C)(C)c1ccc(COc2c(/C=C/C(=O)O)cccc2-c2ccc(OC(F)(F)F)cc2)cc1 [Compound 87]
46%	87%	95%	CC(C)(C)c1ccc(Oc2cc(Oc3ccc(OC(F)(F)F)cc3)ccc2/C=C/C(=O)O)cc1 [Compound 89]
30%	67%	96%	CC(C)(C)c1ccc(COc2c(Cl)cc(-c3ccc(OC(F)(F)F)cc3)cc2C=CC(=O)O)cc1 [Compound 91]
25%	63%	97%	CC(C)(C)c1ccc(COc2c(Cl)cc(-c3ccc(OC(F)(F)F)cc3)cc2CCC(=O)O)cc1 [Compound 92]
